In experiment [1] the target is T1, SARS-CoV-2 PLpro (nsp3 1564–1878) (Severe acute respiratory syndrome coronavirus 2, UniProt P0DTD1). The experiment is described as follows: biochemical. The conditions noted are these: high concentration screen, read-out: % of control remaining. On the set-up: FRET-quenched peptide (Pro3) cleavage by PLpro, 10 min pre-incubation, slope over 20 min, normalised to no-compound control.

For experiment [2], the target named is T1, SARS-CoV-2 PLpro (nsp3 1564–1878). The experiment is described as follows: biochemical. On the set-up: FRET-quenched peptide (Pro3) cleavage by PLpro, 10 min pre-incubation, slope over 20 min, normalised to no-compound control. To be noted: low concentration screen, read-out: % of control remaining.

Structures are written as SMILES. Structures can show the parent of a compound that is named as a salt. Where two headings read alike, the source gives them in different places. Where a SMILES comes first, the peptide text is derived from it. [ ]: non-standard residue; d: D form. The star is where a group is joined. Dolaproine = CO[C@@H]([C@@H]1CCCN1)[C@@H](C)C(=O)O; Hexanoyl(6-maleimido) = O=C1C=CC(=O)N1CCCCCC(=O)*; Dil = CC[C@H](C)[C@H](NC)[C@@H](CC(=O)O)OC; Doe = c1ccc(C[C@H](N*)c2nccs2)cc1; NMeV = CN[C@H](C(=O)O)C(C)C

As for `CCCOC(=O)c1c(-c2ccccc2)nc(CC)c(C(=O)SCC)c1CCC` [MRS 1523], the remaining activity at 3.75 µM in experiment [1] (Well no.=1064) was found to be 94.2%. The remaining activity at 1.25 µM in experiment [2] (Well no.=1064) came out at 95.3%.

Regarding `CCCn1c(=O)c2[nH]c(-c3ccc(OCC(=O)Nc4ccc(C#N)cc4)cc3)nc2n(CCC)c1=O` [MRS 1754], the remaining activity at 3.75 µM in experiment [1] (Well no.=788) is 97.6%; in experiment [1] (Well no.=8407), 95.8%. Also, the remaining activity at 1.25 µM in experiment [2] (Well no.=788) worked out at 97.4%; in experiment [2] (Well no.=8407), 101%.

On to `C#CCN1C(C)=C(C(=O)OC)C(c2cccc([N+](=O)[O-])c2)C(C(=O)OCC)=C1C` (stereo not drawn) [MRS 1845], for which the remaining activity at 3.75 µM in experiment [1] (Well no.=968) is 96.5%. Also, the remaining activity at 1.25 µM in experiment [2] (Well no.=968) worked out at 95.8%.

In the case of `Cc1nc(N=Nc2ccc(C(=O)O)cc2)c(COP(=O)(O)O)c(C=O)c1O` [MRS 2159], in experiment [1] (Well no.=1030), the remaining activity at 3.75 µM worked out at 101%. For the same molecule, the remaining activity at 1.25 µM in experiment [2] (Well no.=1030) worked out at 102%.

In the case of `CNc1ncnc2c1ncn2[C@H]1C[C@H](OP(=O)(O)O)[C@@H](COP(=O)(O)O)O1` [MRS 2179], in experiment [1] (Well no.=926), the remaining activity at 3.75 µM amounted to 103%. For the same molecule, the remaining activity at 1.25 µM in experiment [2] (Well no.=926) came out at 98.6%.

With `S=C=Nc1cccc(NC(=S)NCCCCNC(=S)Nc2cccc(N=C=S)c2)c1` [MRS 2578], the remaining activity at 3.75 µM in experiment [1] (Well no.=7275) was 95.2%. The values for the remaining activity at 1.25 µM in experiment [2] (Well no.=4797) and in experiment [2] (Well no.=7275) were 93.1% and 95%, respectively.

For `CCCn1c(=O)c2[nH]c(-c3ccc(OCC(=O)Nc4ccc(C(C)=O)cc4)cc3)nc2n(CCC)c1=O` [MRS-1706], the remaining activity at 3.75 µM in experiment [1] (Well no.=8511) worked out at 105%. For the same molecule, the remaining activity at 1.25 µM in experiment [2] (Well no.=8511) amounted to 102%.

Regarding `Cc1cc(/N=N/c2ccc(S(=O)(=O)Nc3ccccn3)cc2)c(N)cc1O` [MS436], the remaining activity at 3.75 µM in experiment [1] (Well no.=7590) is 96.8%. Besides, the remaining activity at 1.25 µM in experiment [2] (Well no.=7590) is 93.3%.

Turning to `c1cnc(NCc2ccc(CNc3ncccn3)cc2)nc1` [MSX-122], the results for the remaining activity at 3.75 µM in experiment [1] (Well no.=8075) and in experiment [1] (Well no.=8397) were 84.8% and 90.4%, respectively. Further, the remaining activity at 1.25 µM is 97% in experiment [2] (Well no.=8075) and 89.1% in experiment [2] (Well no.=8397).

For the molecule `Cc1nc(C#Cc2cccnc2)cs1` [MTEP (hydrochloride)], the remaining activity at 3.75 µM in experiment [1] (Well no.=7283) is 94.9%. In addition, the remaining activity at 1.25 µM in experiment [2] (Well no.=7283) came out at 92.5%.

`Cc1ccc(NS(=O)(=O)c2ccc3c(c2)C2C=CCC2C(c2ccc(C(=O)O)cc2)N3)cc1C` (stereo not drawn) [MX69]: the values for the remaining activity at 3.75 µM in experiment [1] (Well no.=6822) and in experiment [1] (Well no.=7984) were 94.1% and 98.5%, respectively. For the same molecule, the results for the remaining activity at 1.25 µM in experiment [2] (Well no.=6822) and in experiment [2] (Well no.=7984) were 97.6% and 100%, respectively.

On to `CCCNS(=O)(=O)Nc1ncnc(OCCOc2ncc(Br)cn2)c1-c1ccc(Br)cc1` [Macitentan], for which the remaining activity at 3.75 µM in experiment [1] (Well no.=4830) is 97.8%; in experiment [1] (Well no.=8253), 90.3%. Also, the remaining activity at 1.25 µM in experiment [2] (Well no.=4830) was 97.6%; in experiment [2] (Well no.=8253) it was 97.3%.

With `C[C@H]1[C@H](C)CC[C@]2(C(=O)O)CC[C@]3(C)C(=CC[C@@H]4[C@@]5(C)C[C@@H](O)[C@H](O)[C@@](C)(CO)[C@@H]5[C@H](O)C[C@]43C)[C@H]12` [Madecassic acid], in experiment [1] (Well no.=3657), the remaining activity at 3.75 µM came to 104%. In addition, in experiment [2] (Well no.=3657), the remaining activity at 1.25 µM was 104%.

With `C=CCc1ccc(O)c(-c2cc(CC=C)ccc2O)c1` [Magnolol], the remaining activity at 3.75 µM in experiment [1] (Well no.=3659) was 98.1%. Further, in experiment [2] (Well no.=3659), the remaining activity at 1.25 µM amounted to 96.1%.

Consider `O=C(O)/C=C\C(=O)O` [Maleic Acid], for which the remaining activity at 3.75 µM in experiment [1] (Well no.=6593) amounted to 101%. In addition, the remaining activity at 1.25 µM in experiment [2] (Well no.=6593) stood at 100%.

Turning to `O=C(O)CC(O)C(=O)O` (stereo not drawn) [Malic acid], the remaining activity at 3.75 µM in experiment [1] (Well no.=6637) was 110%. Besides, the remaining activity at 1.25 µM in experiment [2] (Well no.=6637) was 106%.

As to `CC(C)OC(=O)C(C(=O)OC(C)C)=C1SC=CS1` [Malotilate], the remaining activity at 3.75 µM in experiment [1] (Well no.=8884) was determined as 84.3%. Besides, the remaining activity at 1.25 µM in experiment [2] (Well no.=8884) worked out at 85.8%.

With `COC(=O)C1=C(C)NC(C)=C(C(=O)OCCN2CCN(C(c3ccccc3)c3ccccc3)CC2)C1c1cccc([N+](=O)[O-])c1` (stereo not drawn) [Manidipine], in experiment [1] (Well no.=1788), the remaining activity at 3.75 µM was found to be 99.9%. For the same molecule, in experiment [2] (Well no.=1788), the remaining activity at 1.25 µM is 104%.

Take `C=C[C@](C)(O)CC[C@H]1C(=C)CC[C@H]2C(C)(C)CCC[C@]12C` [Manool]: the remaining activity at 3.75 µM in experiment [1] (Well no.=3389) was 98.7%. The remaining activity at 1.25 µM in experiment [2] (Well no.=3389) was 95.7%.

For the molecule `CNCCC[C@]12CC[C@H](c3ccccc31)c1ccccc12` [Maprotiline hydrochloride], the remaining activity at 3.75 µM in experiment [1] (Well no.=845) amounted to 103%. Besides, in experiment [2] (Well no.=845), the remaining activity at 1.25 µM worked out at 103%.

For the molecule `CNCCCC12CCC(c3ccccc31)c1ccccc12` [Maprotiline.HCl], in experiment [1] (Well no.=1787), the remaining activity at 3.75 µM stood at 96.8%. The remaining activity at 1.25 µM in experiment [2] (Well no.=1787) came to 95.1%.

Take `Cc1nnc(C(C)C)n1[C@@H]1C[C@H]2CC[C@@H](C1)N2CC[C@H](NC(=O)C1CCC(F)(F)CC1)c1ccccc1` [Maraviroc]: the results for the remaining activity at 3.75 µM in experiment [1] (Well no.=4678) and in experiment [1] (Well no.=8691) were 100% and 102%, respectively. In addition, the values for the remaining activity at 1.25 µM in experiment [2] (Well no.=4678) and in experiment [2] (Well no.=8691) were 103% and 101%, respectively.

On to `O=C(/C=C/c1ccc(O)c(O)c1)c1ccc(O[C@@H]2O[C@H](CO)[C@@H](O)[C@H](O)[C@H]2O)c(O)c1O` [Marein], for which the remaining activity at 3.75 µM in experiment [1] (Well no.=3731) was 95.9%. In addition, the remaining activity at 1.25 µM in experiment [2] (Well no.=3731) was 91.7%.

With `O=C1/C(=C/c2ccc(O)c(O)c2)Oc2c1ccc(O[C@@H]1O[C@H](CO)[C@@H](O)[C@H](O)[C@H]1O)c2O` [Maritimein], in experiment [1] (Well no.=3339), the remaining activity at 3.75 µM is 97.6%. For the same molecule, the remaining activity at 1.25 µM in experiment [2] (Well no.=3339) was found to be 91.1%.

Turning to `O=C(c1ccccc1O)c1[nH]c(Cl)c(Cl)c1-n1c(C(=O)c2ccccc2O)cc(Cl)c1Cl` [Maritoclax], the remaining activity at 3.75 µM in experiment [1] (Well no.=6588) was 99.2%. For the same molecule, the remaining activity at 1.25 µM in experiment [2] (Well no.=6588) came out at 101%.

In the case of `O=C1CCC[C@@H]2[C@H]3CCCN4CCC[C@@H](CN12)[C@@H]34` [Matrine], the remaining activity at 3.75 µM was 103% in experiment [1] (Well no.=3661) and 94.7% in experiment [1] (Well no.=8341). The remaining activity at 1.25 µM in experiment [2] (Well no.=3661) is 101%; in experiment [2] (Well no.=8341), 100%.

In the case of `NCCCCN(Cc1nc2ccccc2[nH]1)[C@H]1CCCc2cccnc21` [Mavorixafor (trihydrochloride)], the remaining activity at 3.75 µM in experiment [1] (Well no.=8167) came to 103%. The remaining activity at 1.25 µM in experiment [2] (Well no.=8167) was 109%.

As to `CC[C@H](C)[C@@H]([C@@H](CC(=O)N1CCC[C@H]1[C@H](OC)[C@@H](C)C(=O)N[C@@H](Cc1ccccc1)c1nccs1)OC)N(C)C(=O)[C@@H](NC(=O)[C@H](C(C)C)N(C)C(=O)CCCCCN1C(=O)C=CC1=O)C(C)C` [Mc-MMAD] ({Hexanoyl(6-maleimido)}-[NMeV]V[Dil][Dolaproine]-Doe), the remaining activity at 3.75 µM in experiment [1] (Well no.=8610) was determined as 91.2%. Also, in experiment [2] (Well no.=8610), the remaining activity at 1.25 µM amounted to 95.3%.

The record behind these values is article PMC8286840, “Identifying SARS-CoV-2 antiviral compounds by screening for small molecule inhibitors of Nsp3 papain-like protease” (Biochemical Journal, 2021).
